What all share (assay type): cell-based
Assay [1] deals with human lymphocytes. In words: inhibition of blast formation from human lymphocytes stimulated by anti-CD3 antibody. The note with it: Lymphocyte, FIG. 10, read-out: IC50, blastogenesis stimulated by anti-CD3. The method, then:
(§1) This is a human in vitro assay for immunosuppressive activity of the inventive compounds.
(§2) A third assay measures an ability of an inventive compound to inhibit IL-2-induced proliferation of murine thymocytes. Thymus glands are obtained from 4-6 week old mice and plated as a single cell suspension into flat bottomed wells in RPMI 1640 medium supplemented with 10% fetal calf serum. The inventive compounds are added to appropriate wells and the cells are incubated for 1-2 hrs. Concanavilin A (ConA, 0.25 μg/ml) and IL-1 (20 ng/ml) are added and the plates are incubated for 4 days. Cell proliferation is determined as above. There are also variations for this assay that follow the same basic stimulation and measure inhibition of proliferation format. For example, splenocytes can be used instead of thymocytes to measure more of a B cell response than a T cell response (e.g., thymocytes) and stimulated by an anti-mu antibody (40 μg/ml), IL-4 or PMA (2.5 nM). Similarly, human lymphocytes can be used from normal human volunteers and stimulated with human IL-2 (100 U/ml, Genzyme) and/or anti-CD3 antibody (2.5 μg/ml, Boehinger Mannheim).
(§3) This example illustrates an experiment showing the effects of CT1525, CT1529 and CT1595 (see Table 1 above for chemical names) on inhibition of blast formation from human lymphocytes stimulated by IL-2 or an anti-CD3 antibody (FIG. 10). […]

The test system of the next assay is Saccharomyces cervisiae. The assay is described as follows: yeast growth inhibition. Particulars: FIG. 6. The method, then:
This assay measures anti-yeast and anti-fungal activity of the drugs tested.
Some of the inventive compounds are effective for inhibiting yeast cell growth. This effect can be assayed by measuring growth of the yeast strain Saccharomyces cervisiae. A control yeast stain Saccharomyces cervisiae (BIO 101, Inc.) is grown overnight in YEPD broth at 30° C. An one to hundred dilution of the yeast culture is made with fresh YEPD broth. 100 μl Aliquots of the diluted culture are distributed into 96-wells titer plates. 100 μl Aliquots of drug is diluted in YEPD broth were then added to the wells. The titer plates are incubated at room temperature with continuous shaking. The cell density of the individual cultures are determined using a mircoplate reader with a A630 filter. The A630 of the individual yeast cultures are compared to control samples without adding drug. This assay is predictive of direct antimicrobial, particularly yeast and fungal, activity of the drugs studied.
This example illustrates the effects of CT2501R (a reference compound), CT1529, CT1589 and CT1519 (see Table 1 for chemical names) on yeast growth (Saccharomyces cervisiae) in the presence or absence of drug. This assays measures anti-yeast and anti-fungal activity of the drugs tested.

In assay [2] the test system is human lymphocytes. In words: inhibition of blast formation from human lymphocytes stimulated by IL-2. Particulars: Lymphocyte, FIG. 10, read-out: IC50, blastogenesis stimulated by IL-2. As to the method:
as §1, §2, §3

In assay [3] the test system is CMV promoter activity in transformed (adenovirus) cells. The assay is described as follows: CMV promoter assay (gene transcription and translation, cytotoxic activity). The note with it: read-out: IC50 (μM), CMV promoter assay. From the text:
This example illustrates data regarding proliferative activity of various inventive compounds for inducting CMV promoter activity. The CMV promoter assay measures gene transcription and translation activity wherein any active compounds will nave cytotoxic activity to inhibit cellular protein synthesis machinery in transformed (adenovirus) cells.

Structures are written as SMILES.

As to `Cn1cnc2c1c(=O)n(CCCCC(=O)CCl)c(=O)n2C` [CT1595, 1-(6-chloro-5-oxohexyl)-3,7-dimethylxanthine], the IC50 in the assay with human lymphocytes [1] was less than 5 µM; with human lymphocytes [2], less than 5 µM; in assay [3], 20 µM. Also, the yeast growth inhibition entry in the assay on Saccharomyces cervisiae was “strongly inhibited yeast growth”.

By IC50 is commonly meant the concentration needed to halve the response being measured.

(Values after patent publication US5670506A, “Halogen, isothiocyanate or azide substituted xanthines” (Cell Therapeutics, Inc., priority 1993, dated 1997).)
